Assays:
HitS ICD = molecular target: T1, HitS ICD (Bacillus anthracis, UniProt Q81RT2); conditions: 5 uM kinase, 37 C, 30 min; labelled compound
T1 construct: gene GBAA_1956

HssS ICD = molecular target: T2, HssS ICD (Bacillus anthracis, UniProt A0AAC8N8V0); conditions: 5 uM kinase, 37 C, 30 min; labelled compound
T2 construct: gene BA_3260
T2 sequence (A0AAC8N8V0 189-458 limits assumed): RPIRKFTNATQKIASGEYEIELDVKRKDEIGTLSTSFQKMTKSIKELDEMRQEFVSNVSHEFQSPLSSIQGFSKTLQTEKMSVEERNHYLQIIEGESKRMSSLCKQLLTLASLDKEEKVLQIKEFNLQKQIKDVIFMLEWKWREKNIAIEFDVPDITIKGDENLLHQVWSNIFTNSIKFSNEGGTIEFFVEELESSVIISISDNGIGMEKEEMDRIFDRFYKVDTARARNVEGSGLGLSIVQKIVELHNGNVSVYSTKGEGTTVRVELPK

T1 sequence (Q81RT2 74-351 limits assumed): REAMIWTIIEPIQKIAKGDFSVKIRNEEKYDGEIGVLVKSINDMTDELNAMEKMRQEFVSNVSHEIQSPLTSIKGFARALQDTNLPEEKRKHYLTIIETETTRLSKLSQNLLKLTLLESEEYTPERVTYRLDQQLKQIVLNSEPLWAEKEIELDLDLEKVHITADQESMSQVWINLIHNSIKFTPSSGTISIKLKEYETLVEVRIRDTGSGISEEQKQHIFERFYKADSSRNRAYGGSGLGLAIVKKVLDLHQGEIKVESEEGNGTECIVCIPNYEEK

Nc1ncnc2c1ncn2[C@@H]1O[C@H](COP(=O)(O)OP(=O)(O)OP(=O)(O)O)[C@@H](O)[C@H]1O [ATP]
autophosphorylation, SDS-PAGE and phosphorimager (HitS ICD): Both HKs autophosphorylate in the presence of ATP | autophosphorylation, SDS-PAGE and phosphorimager (HssS ICD): Both HKs autophosphorylate in the presence of ATP
